Assay [1] deals with Burkholderia thailandensis. The assay can be described thus: Antibacterial activity against Burkholderia thailandensis E264 assessed as bacterial growth inhibition after 24 hrs by two-fold dilution method. The format is functional. The following applies: E264, 24 h.
Assay [2] is described as follows: Inhibition of Burkholderia pseudomallei recombinant methionine aminopeptidase 1 using H-Met-Gly-Pro-7-amino-4-methylcoumarin hydrochloride as substrate measured for 10 mins by fluorescence assay in presence of human recombinant DPP4.
In assay [3] the test system is Burkholderia thailandensis. Kind of assay: Bactericidal activity against Burkholderia thailandensis E264 assessed as cell death at 1 mM after 24 hrs by two-fold dilution method. The class given is functional.
Assay [4] deals with Burkholderia thailandensis. The assay can be described thus: Antibacterial activity against Burkholderia thailandensis E264 assessed as bacterial growth inhibition at 1 mM after 24 hrs by two-fold dilution method relative to DMSO-treated control. The class given is functional. The conditions noted are these: for inhibition of growth at 1000 µM: E264, 24 h, read-out: GI.
Assay [5] concerns the target Methionine aminopeptidase 1 (Homo sapiens, UniProt P53582). Kind of assay: Inhibition of human methionine aminopeptidase 1.
The test system of assay [6] is Burkholderia pseudomallei. The assay can be described thus: Antibacterial activity against Burkholderia pseudomallei 1026b assessed as bacterial growth inhibition after 24 hrs by two-fold dilution method. The class given is functional, organism-based.
Assay [7] concerns Burkholderia pseudomallei. Kind of assay: Antibacterial activity against Burkholderia pseudomallei Bp340 assessed as bacterial growth inhibition at 31.25 uM after 24 hrs by two-fold dilution method. The class given is functional, organism-based.
Assay [8] relates to Burkholderia thailandensis. The assay can be described thus: Bactericidal activity against Burkholderia thailandensis E264 assessed as cell death after 24 hrs by two-fold dilution method. The format is functional. The conditions noted are these: E264, 24 h.
In assay [9] the test system is Burkholderia thailandensis. Kind of assay: Antibacterial activity against Burkholderia thailandensis E264 assessed as bacterial growth inhibition at 0.5 mM after 24 hrs by two-fold dilution method relative to control. The format is functional.
The test system of assay [10] is Burkholderia pseudomallei. The assay can be described thus: Antibacterial activity against Burkholderia pseudomallei assessed as bacterial growth inhibition. The format is functional.
In assay [11] the target is Methionine aminopeptidase 2 (Homo sapiens, UniProt P50579). Kind of assay: Inhibition of human methionine aminopeptidase 2.
Methionine aminopeptidase 2, sequence (P50579 whole entry): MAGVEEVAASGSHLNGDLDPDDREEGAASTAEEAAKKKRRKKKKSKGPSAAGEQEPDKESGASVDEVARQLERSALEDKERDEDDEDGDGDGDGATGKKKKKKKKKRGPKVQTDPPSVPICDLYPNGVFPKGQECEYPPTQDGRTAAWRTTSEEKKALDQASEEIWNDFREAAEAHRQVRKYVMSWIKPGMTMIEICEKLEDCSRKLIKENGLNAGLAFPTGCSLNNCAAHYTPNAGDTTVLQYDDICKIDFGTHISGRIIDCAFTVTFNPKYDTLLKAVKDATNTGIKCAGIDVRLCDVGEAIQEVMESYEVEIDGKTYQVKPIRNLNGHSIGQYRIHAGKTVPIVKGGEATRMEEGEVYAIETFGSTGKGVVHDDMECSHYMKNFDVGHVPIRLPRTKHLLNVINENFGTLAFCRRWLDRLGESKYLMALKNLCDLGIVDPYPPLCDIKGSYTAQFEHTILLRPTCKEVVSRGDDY

Values after ≈ are worked out from the molar mass of the structure shown. Active and inactive are the calls of the source. The rule behind the calls is not given here.

`CN1CCN(Cc2cc([N+](=O)[O-])c3cccnc3c2O)CC1`: the minimum inhibitory concentration (MIC) (usually the least concentration at which growth counts as inhibited) in assay [1] was 500 µM (≈ 151 µg/mL). Further, the half-maximal inhibitory concentration (IC50) (commonly the point on the concentration scale where inhibition reaches its midpoint) in [2] came out at 0.07 µM. Also, the “growth inhibition (GI)” value in [3] is “inactive”. In addition, in assay [4], the “growth inhibition (GI)” value was “Active”.

On to `Oc1cccc2cccnc12` [OXYQUINOLINE], for which the inhibition of growth at 1000 µM in assay [4] was greater than 50%. This compound came in with a half-inhibitory concentration (IC50) in [5] greater than 15 µM.

As for `O=[N+]([O-])c1ccc(O)c2ncccc12` [NITROXOLINE], the “growth inhibition (GI)” value in assay [6], in assay [7] and in assay [4] was “Active” in each case. Further, the MIC in assay [1] came out at 31 µM (≈ 5.89 µg/mL). Also, the minimum bactericidal concentration (MBC) (usually the lowest tested concentration that kills the bacteria rather than only halting them) in [8] was 250 µM (≈ 47.5 µg/mL).

Consider `NC[C@H]1O[C@H](O[C@H]2[C@H](O)[C@@H](O[C@H]3O[C@H](CO)[C@@H](O)[C@H](N)[C@H]3O)[C@H](N)C[C@@H]2N)[C@H](O)[C@@H](O)[C@@H]1O`, for which, in assay [9], the inhibition entry is “Active”.

On to `CN1CCN(Cc2cc(Cl)c3cccnc3c2O)CC1`, for which, in assay [4], the inhibition of growth at 1000 µM was greater than 50%.

For the compound `Cc1ccc(CSc2nnc(N)[nH]2)cc1`, the half-maximal inhibitory concentration (IC50) in assay [2] amounted to 3.1 µM. In addition, the inhibition of growth at 1000 µM in assay [4] is no more than 26%.

On to `Oc1ccc(Cl)c2cccnc12` [CLOXYQUIN], for which the inhibition of growth at 1000 µM in assay [4] was greater than 50%.

In the case of `O=[N+]([O-])c1cc(CN2CCCC2)c(O)c2ncccc12`, in [2], the IC50 was found to be 0.03 µM. Further, the “growth inhibition (GI)” value in assay [4] was “Active”.

`CN(C)Cc1cc([N+](=O)[O-])c2cccnc2c1O`: the IC50 in assay [2] was 0.04 µM. The “growth inhibition (GI)” value in assay [4] was “Active”.

For the compound `Nc1nnc(SCc2ccc(F)cc2)[nH]1`, in assay [2], the IC50 is 7 µM. Further, in assay [4], the inhibition of growth at 1000 µM was no more than 26%.

Take `Oc1c(CN2CCOCC2)cc(Cl)c2cccnc12`: the inhibition of growth at 1000 µM in [4] was greater than 50%.

On to `Nc1nnc(SCc2ccc(Cl)cc2Cl)[nH]1`, for which, in [2], the IC50 worked out at 1 µM. In addition, the inhibition of growth at 1000 µM in assay [4] was no more than 26%.

`Oc1c(CN2CCSCC2)cc(Cl)c2cccnc12`: the inhibition of growth at 1000 µM in assay [4] is greater than 50%.

Regarding `CC(C)(O/N=C(\C(=O)N[C@@H]1C(=O)N2C(C(=O)[O-])=C(C[n+]3ccccc3)CS[C@H]12)c1csc(N)n1)C(=O)O` [CEFTAZIDIME], in [10], the minimum inhibitory concentration (MIC) came out at 1 µg/mL (≈ 1.83 µM).

Regarding `O=S(=O)(O)c1ccc(O)c2ncccc12`, the half-maximal inhibitory concentration (IC50) in assay [11] is greater than 15 µM. For the same compound, the inhibition of growth at 1000 µM in assay [4] stood at 9%.

As to `Cc1ccc2cccc(O)c2n1` [8-HYDROXY QUINALDINE], the half-maximal inhibitory concentration (IC50) in assay [11] and in [5] was greater than 15 µM in each case. In addition, the inhibition of growth at 1000 µM in assay [4] was greater than 50%.

Take `O=[N+]([O-])c1cc(CN2CCSCC2)c(O)c2ncccc12`: the half-maximal inhibitory concentration (IC50) in assay [2] was greater than 250 µM.

In the case of `CC(C)c1ccc(CSc2nnc(N)[nH]2)cc1`, the half-maximal inhibitory concentration (IC50) in [2] was greater than 250 µM. In [4], the inhibition of growth at 1000 µM was no more than 26%.

Regarding `CC(C)(C)c1ccc(CSc2nnc(N)[nH]2)cc1`, the concentration for half-maximal inhibition (IC50) in assay [2] is greater than 250 µM. Further, the inhibition of growth at 1000 µM in assay [4] was no more than 26%.

With `Nc1nnc(SCc2ccc(F)c(F)c2)[nH]1`, in assay [2], the IC50 was greater than 250 µM. Further, the inhibition of growth at 1000 µM in assay [4] is no more than 26%.

Regarding `Oc1c(CN2CCCCC2)cc(Cl)c2cccnc12`, in assay [4], the inhibition of growth at 1000 µM was greater than 50%. In assay [5], this compound yielded an IC50 greater than 50 µM.

`O=[N+]([O-])c1cc(CN2CCOCC2)c(O)c2ncccc12`: the half-maximal inhibitory concentration (IC50) in assay [2] was 60 µM.

Source of the values: ChEMBL document CHEMBL2406976, “Discovery of Inhibitors of Burkholderia pseudomallei Methionine Aminopeptidase with Antibacterial Activity” (ACS Med Chem Lett, 2013).
